Source: ChEMBL document CHEMBL1153458, “Design, synthesis and evaluation of a novel cyclohexanamine class of neuropeptide Y Y1 receptor antagonists” (Bioorg Med Chem Lett, 2009)

Assay: physchem
Details: human

SMILES | pKa
COc1ccc([C@H](N[C@@H]2CC[C@@H](C(=O)N3CCC(C(=O)N4CCCC4)(c4ccccc4)CC3)C(C)(C)C2)C(F)(F)F)cc1 | 4.24
COc1ccc([C@@H](C)N[C@@H]2CC[C@@H](C(=O)N3CCC(C(=O)N4CCCC4)(c4ccccc4)CC3)C(C)(C)C2)cc1 | 10.2
